In patent US12084422B2, “Phenyl-n-quinoline derivatives for treating a RNA virus infection” (ABIVAX, priority 2018, dated 2024) one finds inhibition data, which are given here for three molecules.

Each structure is given as a SMILES string.

This assay deals with DENV-2 strain 16681. As to the kind of experiment: Screening for DENV-2 inhibition using Viral ToxGlo assay in A549 cells. Type of assay: cell-based, Dengue 2 virus. To be noted: Dengue virus, DENV2, A549, 120 h, read-out: % DENV-2 Inhibition Mean (n = 3).
Regarding `CCc1cc(OC(C)C)ccc1Nc1ccc2cccc(Cl)c2n1` [Compound 13, 8-chloro-N-(2-ethyl-4-isopropoxyphenyl)quinolin-2-amine], the inhibition at 10 µM stood at 117%. The figure for `Cc1cc(OC(C)C)c(C)cc1Nc1ccc2cccc(Cl)c2n1` [Compound 43, 8-chloro-N-(4-isopropoxy-2,5-dimethylphenyl)quinolin-2-amine] is 68%; for `Cc1cc(OC(C)C)ccc1Nc1ccc2cccc(Cl)c2n1` [Compound 10, 8-chloro-N-(4-isopropoxy-2-methylphenyl)quinolin-2-amine] it is 79%.

The term inhibition denotes the change of the read-out against control, counted positive when it falls.
